In patent US12082579B2, “Compositions and methods to manage hemiptera” (ISCA Technologies, Inc., priority 2021, dated 2024):

Tested on: Diceraus melacanthus
Experiment: Field study in a wheat harvest area: attraction of stink bugs by pear ester versus regular pheromone, 24 hour period, six blocks
Assay type: in vivo
Conditions: for attraction rate (stink bugs attracted per treatment): wheat harvest area
Procedure: A study was conducted to evaluate the effectiveness of pear ester versus regular pheromone to attract sting bugs. In particular, a study was conducted in a wheat harvest area in an attempt to attract the stink bug, Diceraus melacanthus.

SMILES: CCCCC/C=C\C=C\C(=O)OCC [Pear Ester, Ethyl-2E,4Z-decadienoate]
- attraction rate compared with regular pheromone (24 hour period, six blocks, result in words): at least, the same as the regular pheromone
- attraction rate (stink bugs attracted per treatment) (Block 1, 24 hour period): 3
- attraction rate (stink bugs attracted per treatment) (Block 2, 24 hour period): 1
- attraction rate (stink bugs attracted per treatment) (Block 3, 24 hour period): 0
- attraction rate (stink bugs attracted per treatment) (Block 4, 24 hour period): 0
- attraction rate (stink bugs attracted per treatment) (Block 5, 24 hour period): 3
- attraction rate (stink bugs attracted per treatment) (Block 6, 24 hour period): 1
- attraction rate, Mean (Mean of six blocks, 24 hour period): 1.33
- attraction rate, Sum (Sum of six blocks, 24 hour period): 8.00
- attractant effect on stink bugs (stink bugs, including Diceraus melacanthus, Nezara viridula, Piezodorus guildinii, Tibraca limbativentris, Chinavia spp, Edessa meditabunda, Euschistus heros, result in words): clearly has an attractant effect
